Measured values as given in article PMC6327983, “Discovery of cyanopyridine scaffold as novel indoleamine-2,3-dioxygenase 1 (IDO1) inhibitors through virtual screening and preliminary hit optimisation” (Journal of Enzyme Inhibition and Medicinal Chemistry, 2019).
Converted amounts (≈) assume the structure as drawn. One block for each molecule: values may come before it.

What was measured:
IDO1 = biological target: T1, IDO1 (Homo sapiens, UniProt P14902); assay: Enzyme-based IDO1 activity assay; format: biochemical; conditions: for Enzymatic assay IC50 (hIDO1) / IC50: purified human IDO1 enzyme; for IC50: read-out: Enzymatic assay IC50 (hIDO1); for Inhibition ratio (%) @10 μM: 10 μM compound, purified recombinant IDO1
T1 construct: made in house

SKOV3 = system: SKOV3; set-up: method as in earlier work; conditions: Figure 1, literature values; 27 (4), 28 (5); cited from earlier work
HeLa (IDO1) = HeLa (IDO1) (Homo sapiens, UniProt P14902); assay: Cell-based IDO1 activity assay (HeLa kynurenine assay); conditions: IFN-γ stimulated HeLa cells; for EC50: 24 h, read-out: Cellular assay EC50 HeLa (IDO1); for Hill slope of the curves (cellular dose response): Figure 9
Protocol: After incubation for 24 h, 140 µL of supernatant was mixed with 10 µL of 6.1 N trichloroacetic acid and the mixture was incubated for 30 min at 60 °C. The reaction mixture was then centrifuged for 20 min at 4000 rpm at 0 °C to remove sediments. About 100 µL of the supernatant was mixed with 100 µL of 2% (w/v) p-DMAB in acetic acid and measured at 480 nm. The final DMSO concentration was 0.5%. The data were analysed using Graphpad Prism 6.
The HeLa-based cellular assay is informative for drug development, as it evaluates not only the IDO1 inhibitory effect of the compounds but also their capacity to permeate the cell, their inhibition of tryptophan and kynurenine transport and their potential cytotoxicity. […] In addition, since the inhibition of tryptophan degradation could simply be an effect of cytotoxicity, thus the determination of cell viability was necessary when reporting cellular IC50 values. In the initial work, all of the screened compounds were determined for their cell viability using the classical MTT assy.

[1] = Water solubility evaluation (Avdeef–Bucher potentiometric titration); format: physicochemical; conditions: thermodynamic from solid
Protocol: The aqueous solubility was determined on a Gemini Profiler instrument (pION) by the “goldstandard” Avdeef–Bucher potentiometric titration method[46]^,[47].

HeLa = conditions: Figure 1, literature value; cited from earlier work

T1 sequence (P14902 whole entry): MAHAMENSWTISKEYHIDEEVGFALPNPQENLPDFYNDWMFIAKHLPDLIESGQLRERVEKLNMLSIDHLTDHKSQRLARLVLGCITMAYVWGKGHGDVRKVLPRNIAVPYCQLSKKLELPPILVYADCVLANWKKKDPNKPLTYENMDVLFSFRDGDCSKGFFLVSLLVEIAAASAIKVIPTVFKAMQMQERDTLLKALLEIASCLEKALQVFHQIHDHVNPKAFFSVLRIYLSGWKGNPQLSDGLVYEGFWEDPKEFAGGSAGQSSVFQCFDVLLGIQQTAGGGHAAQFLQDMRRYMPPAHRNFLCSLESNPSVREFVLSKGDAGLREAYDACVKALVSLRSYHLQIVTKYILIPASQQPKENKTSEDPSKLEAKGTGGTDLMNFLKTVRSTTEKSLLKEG
HeLa (IDO1), sequence (P14902 whole entry): as above

Enzymatic assay IC50 (hIDO1) (IDO1): Not Converged
Molecule: Cc1cc(C)c(C#N)c(SCC(=O)Nc2nccs2)n1 [LVS-055]

IC50 (IDO1): 18 ± 0.13 µM
melting point: 232 to 234 °C
Molecule: N#Cc1cnccc1SCC(=O)Nc1ccc(F)cc1 [LBJ-05, 2-((3-Cyanopyridin-4-yl)thio)-N-(4-fluorophenyl)acetamide]

IC50 (IDO1): 38.5 ± 6.09 µM
Molecule: COc1cccc(-c2ccc(C#N)c(SCC(=O)Nc3ccccc3Cl)n2)c1 [LVS-042]

IC50 (IDO1): 5.81 ± 1.2 µM
melting point: 208 to 211 °C
Molecule: N#Cc1ccc(C(F)(F)F)nc1SCC(=O)Nc1ccccc1F [LBJ-09, 2-((3-Cyano-6-(trifluoromethyl)pyridin-2-yl)thio)-N-(2-fluorophenyl)acetamide]

IC50 (IDO1): 14.2 ± 1.43 µM
Molecule: Cc1sc2nc(SCC(=O)c3ccc(F)cc3)n(N)c(=O)c2c1C [LVS-001]

Inhibition ratio (%) @10 μM (IDO1): 2.00 ± 0.28%
Molecule: O=C(Cn1nnnc1-c1ccccc1)c1ccc(Br)cc1 [LVS-030]

Molecule: O=C1CC(c2c[nH]c3ccc(F)cc23)C(=O)N1 (stereo not shown) [Compound 4]
IC50 (SKOV3): 0.07 µM

Enzymatic assay IC50 (hIDO1) (IDO1): Not Converged
Molecule: CN1CCc2nc(SCC(=O)Nc3sc4c(c3C#N)CCCC4)c(C#N)cc2C1 [LVS-050]

IC50 (IDO1): 2.57 ± 0.42 µM
EC50 (HeLa (IDO1)): 3.42 ± 0.56 µM
Hill slope of the curves (cellular dose response) (HeLa (IDO1)): 0.69
Molecule: Cc1cc(C)c(C#N)c(SCC(=O)Nc2ccc(Cl)c(Cl)c2)n1 [LVS-039]

IC50 (IDO1): 9.14 ± 0.38 µM
solubility [1]: 75 µg/mL (≈ 261 µM)
melting point: 198 to 201 °C
Molecule: N#Cc1cccnc1SCC(=O)Nc1ccc(F)cc1 [LBJ-03, 2-((3-Cyanopyridin-2-yl)thio)-N-(4-fluorophenyl)acetamide]

IC50 (IDO1): 27.6 ± 6.82 µM
Molecule: COCc1cc(C)nc(SCC(=O)Nc2ccc(C)c(C)c2)c1C#N [LVS-035]

IC50 (IDO1): 35.7 ± 1.25 µM
melting point: 86 to 88 °C
Molecule: O=C(CSc1cccc(C(F)(F)F)n1)Nc1ccc(F)c(Cl)c1 [LBJ-14, N-(3-Chloro-4-fluorophenyl)-2-((6-(trifluoromethyl)pyridin-2-yl)thio)acetamide]

IC50 (IDO1): 20.6 ± 1.12 µM
melting point: 238 to 240 °C
Molecule: Cc1ccc(C#N)c(SCC(=O)Nc2ccc(F)cc2)n1 [LBJ-07, 2-((3-Cyano-6-methylpyridin-2-yl)thio)-N-(4-fluorophenyl)acetamide]

IC50 (IDO1): 8.76 ± 1.74 µM
EC50 (HeLa (IDO1)): 9.4 ± 0.07 µM
Hill slope of the curves (cellular dose response) (HeLa (IDO1)): 0.70
Molecule: Cc1cc(C(F)(F)F)nc(SCC(=O)Nc2sc3c(c2C#N)CCC3)c1C#N [LVS-048]

Inhibition ratio (%) @10 μM (IDO1): 9.91 ± 0.65%
Molecule: Cc1ccc(C(=O)CC2(O)C(=O)N(C)c3ccccc32)cc1 (stereo not shown) [LVS-029]

Inhibition ratio (%) @10 μM (IDO1): 30.73 ± 0.93%
Molecule: O=C(CSc1nnc2scc(-c3ccc(Cl)cc3)n12)Nc1ccc(F)cc1 [LVS-005]

Inhibition ratio (%) @10 μM (IDO1): 11.62 ± 1.19%
Molecule: Cc1ccc(NC(=O)COc2ccccc2CO)cc1 [LVS-014]

IC50 (IDO1): 78.7 ± 8.46 µM
Molecule: Cc1cc(C)c(C#N)c(SCC(=O)Nc2sc(C)c(C)c2C#N)n1 [LVS-036]

Inhibition ratio (%) @10 μM (IDO1): 11.05 ± 0.02%
Molecule: CCOc1ccc(/C=c2\sc3nnc(-c4ccccc4Cl)n3c2=O)cc1 [LVS-015]

Inhibition ratio (%) @10 μM (IDO1): 9.65 ± 0.09%
Molecule: O=c1c2c(-c3ccc([N+](=O)[O-])cc3)csc2nc2n1CCC2 [LVS-004]

Molecule: NS(=O)(=O)NCCNc1nonc1C(=NO)Nc1ccc(F)c(Br)c1 [Compound 3]
IC50 (HeLa): 0.0071 µM

Molecule: C[C@@H](C(=O)Nc1ccc(Cl)cc1)C1CCC(c2ccnc3ccc(F)cc23)CC1 (stereo partly shown) [Compound 5]
IC50 (SKOV3): 0.0034 µM

IC50 (IDO1): 19.5 ± 0.28 µM
melting point: 234 to 236 °C
Molecule: N#Cc1cccnc1OCC(=O)Nc1ccc(F)cc1 [LBJ-01, 2-((3-Cyanopyridin-2-yl)oxy)-N-(4-fluorophenyl)acetamide]

melting point: 211 to 213 °C
Molecule: N#Cc1ncccc1SCC(=O)Nc1ccc(F)cc1 [LBJ-06, 2-((2-Cyanopyridin-3-yl)thio)-N-(4-fluorophenyl)acetamide]

Inhibition ratio (%) @10 μM (IDO1): 3.37 ± 0.04%
Molecule: O=S(=O)(NC1CCCc2ccccc21)c1ccc(Br)cc1 (stereo not shown) [LVS-027]

IC50 (IDO1): 8.08 ± 1.3 µM
Molecule: Cn1c(COc2ccccc2)c(C#N)c2ccccc21 [LVS-002]

IC50 (IDO1): 2.64 ± 0.94 µM
EC50 (HeLa (IDO1)): 7.68 ± 0.27 µM
Hill slope of the curves (cellular dose response) (HeLa (IDO1)): 1.11
Molecule: CC(C)c1ccc(C#N)c(SCC(=O)Nc2ccc(F)cc2)n1 [LVS-019]

IC50 (IDO1): 17.9 ± 1.28 µM
melting point: 212 to 214 °C
Molecule: Cc1ccc(NC(=O)CSc2nc(C(F)(F)F)ccc2C#N)cc1 [LBJ-12, 2-((3-Cyano-6-(trifluoromethyl)pyridin-2-yl)thio)-N-(p-tolyl)acetamide]

IC50 (IDO1): 36.6 ± 5.46 µM
Molecule: CCN(CC)C(=O)CSc1nc(C)cc(C)c1C#N [LVS-033]

Inhibition ratio (%) @10 μM (IDO1): 0.11 ± 1.98%
Molecule: COc1ccccc1-c1cc(C(=O)O)c2ccccc2n1 [LVS-020]

IC50 (IDO1): 49.3 ± 10 µM
Molecule: N#Cc1cc2c(nc1SCC(=O)Nc1ccc(F)cc1)CCCC2 [LVS-044]

Inhibition ratio (%) @10 μM (IDO1): 15.83 ± 0.18%
Molecule: O=C(Nc1ccc2nsnc2c1)c1ccc(F)cc1 [LVS-006]

IC50 (IDO1): 23.6 ± 2.11 µM
Molecule: 2-((3-Cyano-6-(trifluoromethyl)pyridin-2-yl)thio)-N-(p-tolyl)acetamide [LBJ-13]

IC50 (IDO1): 1.38 ± 0.57 µM
Molecule: Cc1cc(C(F)(F)F)c(C#N)c(SCC(=O)Nc2ncc(Br)cc2Br)n1 [LVS-052]

Inhibition ratio (%) @10 μM (IDO1): 21.29 ± 0.22%
Molecule: O=C(CS(=O)(=O)c1ccccc1)Nc1ccc(Br)cn1 [LVS-022]

Inhibition ratio (%) @10 μM (IDO1): 10.22 ± 1.11%
Molecule: Cn1c(=O)c(Sc2ccc(Cl)cc2)c(O)c2ccccc21 [LVS-023]

IC50 (IDO1): 21.2 ± 7.1 µM
Molecule: CCc1nc(SCC(=O)Nc2sc3c(c2C#N)CCC3)c(C#N)cc1C [LVS-047]

Enzymatic assay IC50 (hIDO1) (IDO1): Not Converged
Molecule: Cc1nc(SCC(=O)Nc2sc3c(c2C#N)CCC3)c(C#N)c(C)c1C [LVS-046]

Enzymatic assay IC50 (hIDO1) (IDO1): Not Converged
Molecule: Cc1cc(C)c(C#N)c(SCC(=O)Nc2cccc(C)c2C)n1 [LVS-038]

Inhibition ratio (%) @10 μM (IDO1): 14.15 ± 0.38%
Molecule: O=S(=O)(c1cccc2cccc(Cl)c12)N1CCCC1 [LVS-013]

IC50 (IDO1): 10.4 ± 1.01 µM
Molecule: Sc1nnc(-c2csc3c2CCCC3)n1Cc1ccccc1 [LVS-032]

Enzymatic assay IC50 (hIDO1) (IDO1): Not Converged
Molecule: COc1cc2c(cc1OC)CN(C(=O)CSc1nc(C)cc(C)c1C#N)CC2 [LVS-051]

IC50 (IDO1): 14.8 ± 3.14 µM
Molecule: N#Cc1cc2c(nc1SCC(=O)Nc1sc3c(c1C#N)CCCC3)CCCCCC2 [LVS-049]

IC50 (IDO1): 55.1 ± 10.1 µM
Molecule: COc1cccc(-c2ccc(C#N)c(SCC(=O)Nc3cccc(C)c3)n2)c1 [LVS-041]

IC50 (IDO1): 9.61 ± 0.71 µM
melting point: 230 to 233 °C
Molecule: N#Cc1ccc(C(F)(F)F)nc1SCC(=O)Nc1ccccc1 [LBJ-11, 2-((3-Cyano-6-(trifluoromethyl)pyridin-2-yl)thio)-N-phenylacetamide]

IC50 (IDO1): 26 ± 9.64 µM
Molecule: Cc1cc(C)c(C#N)c(SCC(=O)Nc2sc3c(c2C#N)CCC3)n1 [LVS-045]

IC50 (IDO1): 1.87 ± 0.83 µM
melting point: 201 to 204 °C
Molecule: N#Cc1ccc(C(F)(F)F)nc1SCC(=O)Nc1ccc(F)cc1 [LBJ-08, 2-((3-Cyano-6-(trifluoromethyl)pyridin-2-yl)thio)-N-(4-fluorophenyl)acetamide]

melting point: 215 to 217 °C
Molecule: N#Cc1ccccc1SCC(=O)Nc1ccc(F)cc1 [LBJ-02, 2-((2-Cyanophenyl)thio)-N-(4-fluorophenyl)acetamide]

IC50 (IDO1): 18.4 ± 2.31 µM
Molecule: O=[N+]([O-])c1ccc(Oc2nsnc2N2CCOCC2)cc1 [LVS-018]

Molecule: 4-amino-1,2,5-oxadiazole-3-carboximidamide [Compound 6]
IC50 (HeLa): 1 µM

Molecule: N#Cc1cc2c(nc1SCC(=O)Nc1cc(Cl)cc(Cl)c1)C1CCN2CC1 [LVS-053]
Enzymatic assay IC50 (hIDO1) (IDO1): Not Converged

Enzymatic assay IC50 (hIDO1) (IDO1): Not Converged
Molecule: CN1CCc2nc(SCC(=O)Nc3ccccc3)c(C#N)cc2C1 [LVS-054]

IC50 (IDO1): 21.7 ± 3.18 µM
Molecule: N#Cc1cc2c(nc1SCC(=O)Nc1nccs1)CCCCC2 [LVS-043]

IC50 (IDO1): 66.2 ± 14.3 µM
Molecule: N#Cc1c(C(F)(F)F)cc(-c2cccs2)nc1SCC(=O)Nc1ccc2ccccc2c1 [LVS-034]

IC50 (IDO1): 54.7 ± 4.7 µM
Molecule: N#Cc1c(C(F)(F)F)cc(-c2cccs2)nc1SCC(=O)Nc1ccc(F)cc1 [LVS-037]

IC50 (IDO1): 74.7 ± 15.2 µM
Molecule: COc1ccc(-c2ccc(C#N)c(SCC(=O)Nc3ccccc3Br)n2)cc1 [LVS-040]

Inhibition ratio (%) @10 μM (IDO1): 4.31 ± 0.04%
Molecule: COc1cccc(NC(=O)CSc2nc(N)c(C#N)cc2C#N)c1 [LVS-008]

Molecule: Cn1cc(C[C@@H](N)C(=O)O)c2ccccc21 [Compound 1, 1-methyl-D-tryptophan]
IC50 (HeLa): 1500 µM

IC50 (IDO1): 43.6 ± 0.85 µM
melting point: 206 to 209 °C
Molecule: N#Cc1ccncc1SCC(=O)Nc1ccc(F)cc1 [LBJ-04, 2-((4-Cyanopyridin-3-yl)thio)-N-(4-fluorophenyl)acetamide]
